Data on five compounds can be found in ChEMBL document CHEMBL3639134, “Diphenylmethane derivatives as SGLT2 inhibitors” (2015).

The target in the assay is T1, Sodium/glucose cotransporter 2 (Homo sapiens, UniProt P31639).
T1 sequence (P31639 whole entry): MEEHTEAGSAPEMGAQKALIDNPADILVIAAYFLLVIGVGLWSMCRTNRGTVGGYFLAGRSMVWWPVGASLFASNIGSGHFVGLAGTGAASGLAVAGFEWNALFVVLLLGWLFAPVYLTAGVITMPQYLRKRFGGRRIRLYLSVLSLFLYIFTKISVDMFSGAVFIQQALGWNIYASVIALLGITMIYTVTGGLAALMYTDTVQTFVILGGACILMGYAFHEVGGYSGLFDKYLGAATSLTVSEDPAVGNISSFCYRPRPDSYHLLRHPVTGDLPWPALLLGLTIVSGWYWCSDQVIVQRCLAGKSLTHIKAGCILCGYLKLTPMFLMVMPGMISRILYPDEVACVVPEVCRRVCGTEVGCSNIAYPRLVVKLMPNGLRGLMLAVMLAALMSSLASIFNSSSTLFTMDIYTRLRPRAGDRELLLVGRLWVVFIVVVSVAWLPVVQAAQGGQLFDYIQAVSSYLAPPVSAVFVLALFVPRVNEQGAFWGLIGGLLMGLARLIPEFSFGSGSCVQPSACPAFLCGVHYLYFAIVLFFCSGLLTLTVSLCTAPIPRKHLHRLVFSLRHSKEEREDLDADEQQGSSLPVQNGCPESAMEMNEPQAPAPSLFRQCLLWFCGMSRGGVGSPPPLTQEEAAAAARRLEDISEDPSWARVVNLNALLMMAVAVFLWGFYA
The experiment in a line: Inhibition Assay: For sodium-dependent glucose transport assay, cells expressing hSGLT2 were seeded into a 96-well culture plate at a density of 5x10^4 cells/well in RPMI medium 1640 containing 10% fetal bovine serum. The cells were used 1 day after plating. They were incubated in pretreatment buffer (10 mM HEPES, 5 mM Tris, 140 mM choline chloride, 2 mM KCl, 1 mM CaCl2, and 1 mM MgCl2, pH 7.4) at 37 C. for 10 min. They were then incubated in uptake buffer (10 mM HEPES, 5 mM Tris, 140 mM NaCl, 2 mM KCl, 1 mM CaCl2, 1 mM MgCl2, and 1 mM 14C-nonlabeled AMG pH 7.4) containing 14C-labeled AMG (8 uM) and the inventive compound or dimethyl sulfoxide (DMSO) vehicle at 37 C. for 2 h. Cells were washed twice with washing buffer (pretreatment buffer containing 10 mM AMG at room temperature) and then the radioactivity was measured using a liquid scintillation counter. IC50 was determined by nonlinear regression analysis using GraphPad PRISM [Katsuno, K. et al. J. Pharmacol. Exp. Ther. 2007, 320, 323-330].

As a reminder, the IC50 is the concentration that inhibits the measured activity by half. Regarding `OC[C@H]1O[C@@H](c2cc(Cc3ccc(N4CCC4)cc3)c(Cl)c3c2CCC3)[C@H](O)[C@@H](O)[C@@H]1O`, the IC50 was determined as 1.75 nM. In the case of `OC[C@H]1O[C@@H](c2cc(Cc3ccc(N4CCC4)cc3)c(Cl)c3c2CCO3)[C@H](O)[C@@H](O)[C@@H]1O`, the IC50 stood at 3.49 nM. The result for `CCOc1ccc(Cc2cc([C@@H]3O[C@H](CO)[C@@H](O)[C@H](O)[C@H]3O)c3c(c2C2CC2)OCC3)cc1` reads 13.8 nM; that for `CCOc1ccc(Cc2cc([C@@H]3O[C@H](CO)[C@@H](O)[C@H](O)[C@H]3O)c3c(c2Cl)OCO3)cc1`, 1.08 nM. To `CCOc1ccc(Cc2cc([C@@H]3O[C@H](CO)[C@@H](O)[C@H](O)[C@H]3O)c3c(c2Cl)NCCO3)cc1` belongs 2.42 nM.
